Columns and labels:
in vitro = settings: human, liver microsomes
[1] = Octanol-water distribution coefficient, log D at pH 7.4; format: physicochemical
[2] = Plasma clearance in rat at 5 mg/kg, iv administered as single dose; format: ADME, organism-based; parameters: dose 5 mg/kg, route intravenous
[3] = Elimination half life in rat at 5 mg/kg, iv administered as single dose; format: ADME, organism-based; parameters: dose 5 mg/kg, route intravenous; settings: in vivo, read-out: beta t1/2 (converted)
[4] = Volume of distribution in rat at 5 mg/kg, iv administered as single dose; format: ADME, organism-based; parameters: dose 5 mg/kg, route intravenous; settings: in vivo

Row | half-life (in vitro) | logD [1] | clearance [2] | half-life [3] | Vd [4] | SMILES
1 | > 2 h | 1.2 | 180 mL/min/kg | 2 h | 33 L/kg | Clc1cccc(OC(c2cccnc2)C2CCNCC2)c1Cl (single isomer, unassigned; enantiomer 1)
2 | > 2 h | – | – | – | – | Cc1ccc(C(Oc2cccc(Cl)c2Cl)C2CCNCC2)cn1 (centres undefined)
3 | > 2 h | 0.9 | – | – | – | Clc1cccc(OC(c2ccccn2)[C@H]2CCNC2)c1Cl (some centres undefined)

Row | SMILES | half-life (in vitro) | logD [1] | clearance [2] | half-life [3] | Vd [4]
4 | CNCC[C@H](Oc1cccc2ccccc12)c1cccs1 [DULOXETINE] | > 2 h | – | – | – | –

Reference: ChEMBL document CHEMBL1151858, “4-Piperidines and 3-pyrrolidines as dual serotonin and noradrenaline reuptake inhibitors: design, synthesis and structure-activity relationships” (Bioorg Med Chem Lett, 2009)
